Laboratory results: the NIST ThermoML archive (doi:10.1016/j.jct.2013.02.022)
± gives the expanded uncertainty stated by the source.

Columns and labels:
[1] = refractive index (Na D-line) (dimensionless); conditions: 101.33 kPa, Liquid, Standard Abbe refractometry
[2] = Liquid; for mass density: 101 kPa, Vibrating tube method; for vapor or sublimation pressure: Ebulliometric method (Recirculating still)
[3] = refractive index (Na D-line) (dimensionless); xn = mol fraction of the nth substance listed; conditions: 101 kPa, Liquid, Standard Abbe refractometry
[4] = xn = mol fraction of the nth substance listed; conditions: 101 kPa, Liquid, Vibrating tube method

Compound: CCCC(=O)[O-].C[NH2+]CCO [N-methyl-2-hydroxyethylammonium butanoate]
- refractive index ([1]; 288.15 K): 1.4579 ± 0.0007
- refractive index ([1]; 303.15 K): 1.4534 ± 0.0007
- refractive index ([1]; 313.15 K): 1.4504 ± 0.0007
- mass density ([2]; 288.15 K): 1046 ± 1.3 kg/m3
- mass density ([2]; 293.15 K): 1042.6 ± 1.3 kg/m3
- mass density ([2]; 298.15 K): 1039.2 ± 1.3 kg/m3
- mass density ([2]; 303.15 K): 1035.9 ± 1.3 kg/m3
- mass density ([2]; 308.15 K): 1032.5 ± 1.3 kg/m3
- mass density ([2]; 313.16 K): 1029.1 ± 1.3 kg/m3
- mass density ([2]; 318.16 K): 1025.7 ± 1.3 kg/m3
- mass density ([2]; 323.16 K): 1022.3 ± 1.3 kg/m3

Compound: CCCC(=O)[O-].C[NH2+]CCO [N-methyl-2-hydroxyethylammonium butanoate] + CCCOC(C)=O
- refractive index ([3]; 313.15 K, x2 = 0): 1.4504 ± 0.0009
- refractive index ([3]; 313.15 K, x2 = 0.0785): 1.4483 ± 0.0009
- refractive index ([3]; 313.15 K, x2 = 0.1247): 1.4457 ± 0.0009
- refractive index ([3]; 313.15 K, x2 = 0.207): 1.4417 ± 0.0008
- refractive index ([3]; 313.15 K, x2 = 0.3035): 1.4365 ± 0.0008
- refractive index ([3]; 313.15 K, x2 = 0.4177): 1.4288 ± 0.0008
- refractive index ([3]; 313.15 K, x2 = 0.5088): 1.4222 ± 0.0008
- refractive index ([3]; 313.15 K, x2 = 0.6042): 1.4146 ± 0.0008
- refractive index ([3]; 313.15 K, x2 = 0.696): 1.4068 ± 0.0008
- refractive index ([3]; 313.15 K, x2 = 0.7939): 1.3991 ± 0.0008
- refractive index ([3]; 313.15 K, x2 = 0.8936): 1.387 ± 0.0008
- refractive index ([3]; 313.15 K, x2 = 0.9454): 1.3809 ± 0.0008
- mass density ([4]; 308.15 K, x2 = 0): 1032.53 ± 1.3 kg/m3
- mass density ([4]; 308.15 K, x2 = 0.0785): 1016.82 ± 1.2 kg/m3
- mass density ([4]; 308.15 K, x2 = 0.4177): 981.77 ± 1.1 kg/m3
- mass density ([4]; 308.15 K, x2 = 0.9454): 884.44 ± 1.1 kg/m3
- mass density ([4]; 308.16 K, x2 = 0.1247): 1013.03 ± 1.2 kg/m3
- mass density ([4]; 308.16 K, x2 = 0.207): 1003.47 ± 1.1 kg/m3
- mass density ([4]; 308.16 K, x2 = 0.3035): 993.9 ± 1.1 kg/m3
- mass density ([4]; 308.16 K, x2 = 0.5088): 968.89 ± 1.1 kg/m3
- mass density ([4]; 308.16 K, x2 = 0.6042): 952.99 ± 1.1 kg/m3
- mass density ([4]; 308.16 K, x2 = 0.696): 936.16 ± 1.1 kg/m3
- mass density ([4]; 308.16 K, x2 = 0.7939): 917.53 ± 1.1 kg/m3
- mass density ([4]; 308.16 K, x2 = 0.8936): 896.61 ± 1.1 kg/m3
- mass density ([4]; 313.15 K, x2 = 0.0785): 1013.32 ± 1.2 kg/m3
- mass density ([4]; 313.15 K, x2 = 0.3035): 989.89 ± 1.1 kg/m3
- mass density ([4]; 313.15 K, x2 = 0.4177): 977.59 ± 1.1 kg/m3
- mass density ([4]; 313.15 K, x2 = 0.696): 931.3 ± 1.1 kg/m3
- mass density ([4]; 313.16 K, x2 = 0): 1029.14 ± 1.3 kg/m3
- mass density ([4]; 313.16 K, x2 = 0.1247): 1009.37 ± 1.2 kg/m3
- mass density ([4]; 313.16 K, x2 = 0.207): 999.76 ± 1.1 kg/m3
- mass density ([4]; 313.16 K, x2 = 0.5088): 964.73 ± 1.1 kg/m3
- mass density ([4]; 313.16 K, x2 = 0.6042): 948.38 ± 1.1 kg/m3
- mass density ([4]; 313.16 K, x2 = 0.7939): 912.41 ± 1.1 kg/m3
- mass density ([4]; 313.16 K, x2 = 0.8936): 891 ± 1.1 kg/m3
- mass density ([4]; 313.16 K, x2 = 0.9454): 878.87 ± 1.1 kg/m3
- mass density ([4]; 318.15 K, x2 = 0.0785): 1009.82 ± 1.2 kg/m3
- mass density ([4]; 318.15 K, x2 = 0.207): 996.08 ± 1.1 kg/m3
- mass density ([4]; 318.15 K, x2 = 0.4177): 973.39 ± 1.1 kg/m3
- mass density ([4]; 318.15 K, x2 = 0.696): 926.41 ± 1.1 kg/m3
- mass density ([4]; 318.15 K, x2 = 0.7939): 907.24 ± 1.1 kg/m3
- mass density ([4]; 318.16 K, x2 = 0): 1025.72 ± 1.3 kg/m3
- mass density ([4]; 318.16 K, x2 = 0.1247): 1005.67 ± 1.2 kg/m3
- mass density ([4]; 318.16 K, x2 = 0.3035): 985.85 ± 1.1 kg/m3
- mass density ([4]; 318.16 K, x2 = 0.5088): 960.4 ± 1.1 kg/m3
- mass density ([4]; 318.16 K, x2 = 0.6042): 943.75 ± 1.1 kg/m3
- mass density ([4]; 318.16 K, x2 = 0.8936): 885.74 ± 1.1 kg/m3
- mass density ([4]; 318.16 K, x2 = 0.9454): 873.25 ± 1.1 kg/m3
- mass density ([4]; 323.15 K, x2 = 0.1247): 1001.94 ± 1.2 kg/m3
- mass density ([4]; 323.15 K, x2 = 0.207): 992.3 ± 1.1 kg/m3
- mass density ([4]; 323.15 K, x2 = 0.5088): 956.04 ± 1.1 kg/m3
- mass density ([4]; 323.15 K, x2 = 0.6042): 939.06 ± 1.1 kg/m3
- mass density ([4]; 323.15 K, x2 = 0.696): 921.47 ± 1.1 kg/m3
- mass density ([4]; 323.16 K, x2 = 0): 1022.26 ± 1.3 kg/m3
- mass density ([4]; 323.16 K, x2 = 0.0785): 1006.34 ± 1.2 kg/m3
- mass density ([4]; 323.16 K, x2 = 0.3035): 981.79 ± 1.1 kg/m3
- mass density ([4]; 323.16 K, x2 = 0.4177): 969.14 ± 1.1 kg/m3
- mass density ([4]; 323.16 K, x2 = 0.7939): 901.89 ± 1.1 kg/m3
- mass density ([4]; 323.16 K, x2 = 0.8936): 880 ± 1.1 kg/m3
- mass density ([4]; 323.16 K, x2 = 0.9454): 867.59 ± 1.1 kg/m3

Compound: CCCOC(C)=O [propyl ethanoate] + CCCC(=O)[O-].C[NH2+]CCO
- refractive index ([3]; 313.15 K, x1 = 1): 1.3741 ± 0.0008
- mass density ([4]; 308.14 K, x1 = 1): 871.38 ± 1 kg/m3
- mass density ([4]; 313.15 K, x1 = 1): 865.7 ± 1 kg/m3
- mass density ([4]; 318.15 K, x1 = 1): 860 ± 1 kg/m3
- mass density ([4]; 323.15 K, x1 = 1): 854.26 ± 1 kg/m3

Compound: COC(C)=O [methyl ethanoate]
- refractive index ([1]; 288.15 K): 1.365 ± 0.0008
- mass density ([2]; 288.15 K): 939.9 ± 1 kg/m3
- mass density ([2]; 293.14 K): 933.4 ± 1 kg/m3
- mass density ([2]; 298.14 K): 926.8 ± 1 kg/m3
- mass density ([2]; 303.14 K): 920.2 ± 1 kg/m3
- mass density ([2]; 308.14 K): 913.5 ± 1 kg/m3
- mass density ([2]; 313.14 K): 906.7 ± 1 kg/m3
- mass density ([2]; 318.14 K): 899.9 ± 1 kg/m3
- mass density ([2]; 323.15 K): 893 ± 1 kg/m3
- vapor or sublimation pressure ([2]; 330.1 K): 101.3 ± 1 kPa

Compound: CCOC(C)=O [ethyl acetate] + CCCC(=O)[O-].C[NH2+]CCO
- refractive index ([3]; 303.15 K, x1 = 1): 1.3672 ± 0.0008
- mass density ([4]; 303.15 K, x1 = 1): 888.76 ± 1 kg/m3
- mass density ([4]; 308.15 K, x1 = 1): 882.58 ± 1 kg/m3
- mass density ([4]; 313.15 K, x1 = 1): 876.34 ± 1 kg/m3
- mass density ([4]; 318.16 K, x1 = 1): 870.06 ± 1 kg/m3
- mass density ([4]; 323.15 K, x1 = 1): 863.73 ± 1 kg/m3

Compound: CCCOC(C)=O [propyl ethanoate]
- refractive index ([1]; 313.15 K): 1.3741 ± 0.0008
- mass density ([2]; 298.15 K): 882.61 ± 1 kg/m3
- mass density ([2]; 308.14 K): 871.38 ± 1 kg/m3
- mass density ([2]; 313.15 K): 865.7 ± 1 kg/m3
- mass density ([2]; 318.15 K): 860 ± 1 kg/m3
- mass density ([2]; 323.15 K): 854.26 ± 1 kg/m3
- vapor or sublimation pressure ([2]; 374 K): 101.3 ± 1 kPa

Compound: CCOC(C)=O [ethyl acetate]
- refractive index ([1]; 303.15 K): 1.3672 ± 0.0008
- mass density ([2]; 298.15 K): 894.9 ± 1 kg/m3
- mass density ([2]; 303.15 K): 888.76 ± 1 kg/m3
- mass density ([2]; 308.15 K): 882.58 ± 1 kg/m3
- mass density ([2]; 313.15 K): 876.34 ± 1 kg/m3
- mass density ([2]; 318.16 K): 870.06 ± 1 kg/m3
- mass density ([2]; 323.15 K): 863.73 ± 1 kg/m3
- vapor or sublimation pressure ([2]; 349.8 K): 101.3 ± 1 kPa

Compound: COC(C)=O [methyl ethanoate] + CCCC(=O)[O-].C[NH2+]CCO
- refractive index ([3]; 288.15 K, x1 = 1): 1.365 ± 0.0008
- mass density ([4]; 288.15 K, x1 = 1): 939.9 ± 1 kg/m3
- mass density ([4]; 293.14 K, x1 = 1): 933.4 ± 1 kg/m3
- mass density ([4]; 298.14 K, x1 = 1): 926.8 ± 1 kg/m3
- mass density ([4]; 303.14 K, x1 = 1): 920.2 ± 1 kg/m3
- mass density ([4]; 308.14 K, x1 = 1): 913.5 ± 1 kg/m3
- mass density ([4]; 313.14 K, x1 = 1): 906.7 ± 1 kg/m3
- mass density ([4]; 318.14 K, x1 = 1): 899.9 ± 1 kg/m3
- mass density ([4]; 323.15 K, x1 = 1): 893 ± 1 kg/m3
